Test results reported in ChEMBL document CHEMBL1201862, “PubChem BioAssay data set” (2004).
Calls of active or inactive are those of the source.

Tests used:
[1] = target: Dual specificity protein phosphatase 3 (Homo sapiens, UniProt P51452); assay: VHR1 inhibitor Ki determination, SAR follow-up, biochemical, colorimetric (AID 2004)
HEK293 [2] = assay: NOD1 signaling inhibitors, primary screen, cell-based, luminescence, uHTS (AID 1578); type: functional; conditions: Homo sapiens
[3] = target: Nucleotide-binding oligomerization domain-containing protein 2 (Homo sapiens, UniProt Q9HC29); assay: NOD2 signaling inhibitors, cell-based, luminescence, uHTS, HEK293 (AID 1566); type: functional
INS1 = assay: beta cell apoptosis inhibitors, cytokine rescue, dose response, luminescence, retest (AID 449756); type: functional, cell-based; conditions: Rattus norvegicus;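 note: cell death triggered by IL-1 beta plus TNF-alpha plus IFN-gamma mixture; protective hits raise ATP signal compared with cytokine alone wells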
HEK293 [4] = assay: cells; type: functional, cell-based; conditions: Homo sapiens
HEK293 [5] = assay: cells; type: functional, cell-based; conditions: Homo sapiens; remark: listed apart in the source
HEK293 [6] = assay: cells; type: functional, cell-based; conditions: Homo sapiens; remark: listed apart in the source
Streptococcus = assay: Group A Streptococcus viability loss, dose response, counter-screen for streptokinase expression inhibitor project, luminescence, BacTiterGlo (AID 1915); type: functional, organism-based; conditions: Streptococcus;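 note: potency for reduction of bacterial viability or growth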
[7] = system: Streptococcus sp. 'group A'; assay: growth inhibition of control SK(-) GAS strain, dose response, counter-screen for streptokinase expression inhibitor project, luminescence, kanamycin, BacTiterGlo, confirmation (AID 1900); type: functional, organism-based; conditions: Streptococcus sp. 'group A'
HEK293 [8] = assay: NOD2 signaling inhibitors in MDP-stimulated cells, cell-based, uHTS, luminescence (AID 2001); type: functional; conditions: Homo sapiens
[9] = target: T1, Apoptotic protease-activating factor 1 (Homo sapiens, UniProt O14727); type: functional
T1 sequence (O14727 whole entry): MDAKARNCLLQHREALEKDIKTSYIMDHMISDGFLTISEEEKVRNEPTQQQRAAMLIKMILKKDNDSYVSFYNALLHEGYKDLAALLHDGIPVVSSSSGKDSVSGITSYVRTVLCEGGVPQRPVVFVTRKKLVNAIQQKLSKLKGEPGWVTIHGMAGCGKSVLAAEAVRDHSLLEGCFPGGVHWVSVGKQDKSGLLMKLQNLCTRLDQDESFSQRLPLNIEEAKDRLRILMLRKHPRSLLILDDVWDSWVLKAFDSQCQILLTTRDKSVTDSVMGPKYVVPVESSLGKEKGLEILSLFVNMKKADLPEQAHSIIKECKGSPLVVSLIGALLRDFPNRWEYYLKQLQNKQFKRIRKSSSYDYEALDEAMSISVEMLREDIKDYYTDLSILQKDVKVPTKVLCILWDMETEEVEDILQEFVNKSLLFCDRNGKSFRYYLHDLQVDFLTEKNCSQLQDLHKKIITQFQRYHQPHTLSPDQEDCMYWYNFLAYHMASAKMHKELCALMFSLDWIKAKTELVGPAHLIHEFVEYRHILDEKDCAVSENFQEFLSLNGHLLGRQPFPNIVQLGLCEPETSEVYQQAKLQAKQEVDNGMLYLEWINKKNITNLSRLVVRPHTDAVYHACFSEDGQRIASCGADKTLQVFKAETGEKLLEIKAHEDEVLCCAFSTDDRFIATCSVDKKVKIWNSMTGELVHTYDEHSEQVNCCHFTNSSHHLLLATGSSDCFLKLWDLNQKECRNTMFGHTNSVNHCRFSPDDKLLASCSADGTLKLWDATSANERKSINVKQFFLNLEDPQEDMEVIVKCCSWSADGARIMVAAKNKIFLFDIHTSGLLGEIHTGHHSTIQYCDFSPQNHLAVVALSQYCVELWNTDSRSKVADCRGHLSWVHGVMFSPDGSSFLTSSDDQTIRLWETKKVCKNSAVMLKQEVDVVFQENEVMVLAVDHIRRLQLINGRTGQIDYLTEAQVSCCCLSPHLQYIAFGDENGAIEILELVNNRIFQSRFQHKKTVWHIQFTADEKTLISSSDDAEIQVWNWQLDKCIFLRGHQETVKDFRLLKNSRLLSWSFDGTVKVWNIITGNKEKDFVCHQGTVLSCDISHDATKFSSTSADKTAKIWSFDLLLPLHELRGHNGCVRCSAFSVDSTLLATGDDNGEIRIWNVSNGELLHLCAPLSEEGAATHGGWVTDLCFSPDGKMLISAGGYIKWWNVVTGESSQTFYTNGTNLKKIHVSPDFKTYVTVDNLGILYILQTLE

[10] = target: NACHT, LRR and PYD domains-containing protein 1 (Homo sapiens, UniProt Q9C000); assay: NALP1 inhibitors in yeast, dose response, luminescent (AID 488860); type: functional
Saccharomyces cerevisiae = assay: NALP1 inhibitor project selectivity study, Caspase-1/ASC signal blockade IC50 in S. cerevisiae (AID 488863); type: functional, organism-based
[11] = target: Neurotensin receptor type 1 (Homo sapiens, UniProt P30989); type: functional;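 note: Image-based confirmatory dose-response assay measuring agonist activity at NTR1; NTR1-expressing U2OS osteosarcoma cells imaged for beta-arrestin GFP spot formation; agonist potency where compounds increase beta-arrestin recruitment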
[12] = target: T2, Heat shock factor protein 1 (Mus musculus, UniProt P38532); assay: HSF1 potentiators in luciferase reporter cells, confirmation, cell-based, NIH3T3, luminescence, dose retest (AID 435004); type: functional;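 note: stress induced by proteasome inhibitor MG132 added 30 min after compound; luciferase reporter driven by HSF1 response element in NIH3T3 cells; actives raise luminescence as potentiators of the MG132 stress response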
T2 sequence (P38532 whole entry): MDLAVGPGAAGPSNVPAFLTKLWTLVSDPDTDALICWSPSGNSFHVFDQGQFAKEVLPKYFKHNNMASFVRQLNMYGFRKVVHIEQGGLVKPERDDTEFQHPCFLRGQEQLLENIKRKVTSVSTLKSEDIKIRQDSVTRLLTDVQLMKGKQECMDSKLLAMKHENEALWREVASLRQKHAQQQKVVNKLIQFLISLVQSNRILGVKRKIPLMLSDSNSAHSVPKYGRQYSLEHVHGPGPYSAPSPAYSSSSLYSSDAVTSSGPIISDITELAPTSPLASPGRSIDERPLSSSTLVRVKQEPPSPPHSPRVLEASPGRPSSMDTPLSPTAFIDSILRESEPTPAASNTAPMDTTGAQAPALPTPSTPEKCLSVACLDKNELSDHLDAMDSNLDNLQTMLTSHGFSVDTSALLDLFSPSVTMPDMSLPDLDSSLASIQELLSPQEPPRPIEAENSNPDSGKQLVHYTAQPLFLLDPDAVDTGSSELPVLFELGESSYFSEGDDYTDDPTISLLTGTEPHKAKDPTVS

Cytochrome P450 3A4 = Cytochrome P450 3A4 (Homo sapiens, UniProt P08684);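 note: CYP3A4 tested as one member of a cytochrome P450 panel screen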
[13] = HEp-2 cell cytotoxicity, dose response, cytotoxicity control for RSV inhibitor project, HTS (AID 2410); type: functional; conditions: human respiratory syncytial virus
[14] = target: T3, Tyrosine-protein phosphatase non-receptor type 7 (Homo sapiens, UniProt P35236); assay: redox-dependent HePTP inhibition, mechanism study, biochemical, fluorescence (AID 2068); type: functional
T3 sequence (P35236 whole entry): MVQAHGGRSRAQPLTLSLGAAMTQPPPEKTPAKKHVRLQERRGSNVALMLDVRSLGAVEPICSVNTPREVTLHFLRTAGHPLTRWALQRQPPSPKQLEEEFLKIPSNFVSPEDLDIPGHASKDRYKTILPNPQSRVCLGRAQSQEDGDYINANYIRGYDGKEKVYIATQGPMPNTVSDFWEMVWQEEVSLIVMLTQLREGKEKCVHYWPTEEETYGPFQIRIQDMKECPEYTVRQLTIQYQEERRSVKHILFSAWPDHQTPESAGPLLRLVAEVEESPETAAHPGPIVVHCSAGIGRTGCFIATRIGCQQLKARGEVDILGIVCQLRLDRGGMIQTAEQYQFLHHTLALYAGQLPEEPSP

Estrogen receptor beta = Estrogen receptor beta (Homo sapiens, UniProt Q92731); assay: ERβ–SRC-3 coactivator interaction inhibitors, confirmation, orthogonal assay, biochemical, ELISA, streptavidin-HRP readout (AID 1060)
Ephrin type-A receptor 4 = Ephrin type-A receptor 4 (Mus musculus, UniProt Q03137); assay: inhibitors of EphA4 binding to KYL peptide, primary screen, biochemical, colorimetric, mouse EphA4 (AID 689); type: functional
[15] = target: Induced myeloid leukemia cell differentiation protein Mcl-1 (Homo sapiens, UniProt Q07820); type: functional
Genome polyprotein = Genome polyprotein (dengue virus type 2, UniProt P29990); assay: Dengue-2 NS5 methyltransferase inhibitors, primary screen, biochemical, confirmation dose response (AID 588689); type: functional
[16] = target: Alkaline phosphatase, placental type (Homo sapiens, UniProt P05187); assay: PLAP enzyme inhibitors, confirmation, biochemical, luminescence (AID 1512); type: functional
[17] = target: Glyceraldehyde-3-phosphate dehydrogenase (Homo sapiens, UniProt P04406)
[18] = target: T4, Alkaline phosphatase, tissue-nonspecific isozyme (Homo sapiens, UniProt P05186); assay: human TNAP enzyme inhibitors, SAR follow-up, biochemical, luminescent, dose response (AID 1056)
T4 sequence (P05186 whole entry): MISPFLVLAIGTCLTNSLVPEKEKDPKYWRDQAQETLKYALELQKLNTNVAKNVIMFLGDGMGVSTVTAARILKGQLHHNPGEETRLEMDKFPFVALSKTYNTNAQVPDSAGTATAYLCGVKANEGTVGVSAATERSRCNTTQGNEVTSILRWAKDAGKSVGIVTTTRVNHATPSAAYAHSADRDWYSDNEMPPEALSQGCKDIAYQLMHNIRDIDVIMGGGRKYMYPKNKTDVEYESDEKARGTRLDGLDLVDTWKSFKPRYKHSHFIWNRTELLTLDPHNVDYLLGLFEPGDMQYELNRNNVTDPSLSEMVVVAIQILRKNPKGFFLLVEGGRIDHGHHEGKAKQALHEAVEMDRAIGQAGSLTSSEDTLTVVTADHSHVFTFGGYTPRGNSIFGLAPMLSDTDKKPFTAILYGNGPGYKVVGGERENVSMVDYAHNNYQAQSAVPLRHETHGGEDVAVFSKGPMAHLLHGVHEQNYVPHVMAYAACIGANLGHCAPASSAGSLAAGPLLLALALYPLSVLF

[19] = target: T5, Dual specificity protein phosphatase 6 (Rattus norvegicus, UniProt Q64346)
T5 sequence (Q64346 whole entry): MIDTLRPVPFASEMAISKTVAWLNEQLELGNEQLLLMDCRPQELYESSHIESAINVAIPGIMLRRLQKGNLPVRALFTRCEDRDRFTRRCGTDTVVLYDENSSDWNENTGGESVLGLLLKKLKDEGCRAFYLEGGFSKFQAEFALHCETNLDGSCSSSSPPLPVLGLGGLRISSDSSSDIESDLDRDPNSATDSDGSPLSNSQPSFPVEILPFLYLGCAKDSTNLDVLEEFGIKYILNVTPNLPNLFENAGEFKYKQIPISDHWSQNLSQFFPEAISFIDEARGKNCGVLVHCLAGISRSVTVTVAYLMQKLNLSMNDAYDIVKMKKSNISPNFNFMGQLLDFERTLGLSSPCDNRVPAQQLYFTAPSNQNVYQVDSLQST

[20] = target: T3, Tyrosine-protein phosphatase non-receptor type 7; type: functional
[21] = target: T5, Dual specificity protein phosphatase 6; type: functional

Glyceraldehyde-3-phosphate dehydrogenase, sequence (P04406 whole entry): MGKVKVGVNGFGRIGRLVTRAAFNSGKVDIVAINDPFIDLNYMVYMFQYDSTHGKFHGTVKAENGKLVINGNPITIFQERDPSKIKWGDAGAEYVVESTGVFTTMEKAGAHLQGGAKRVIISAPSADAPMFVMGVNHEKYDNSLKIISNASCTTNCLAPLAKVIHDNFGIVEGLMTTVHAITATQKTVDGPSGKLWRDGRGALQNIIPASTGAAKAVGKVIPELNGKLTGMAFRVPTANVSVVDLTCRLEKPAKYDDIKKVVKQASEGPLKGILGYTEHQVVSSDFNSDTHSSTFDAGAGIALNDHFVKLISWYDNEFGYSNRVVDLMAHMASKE
Alkaline phosphatase, placental type, sequence (P05187 whole entry): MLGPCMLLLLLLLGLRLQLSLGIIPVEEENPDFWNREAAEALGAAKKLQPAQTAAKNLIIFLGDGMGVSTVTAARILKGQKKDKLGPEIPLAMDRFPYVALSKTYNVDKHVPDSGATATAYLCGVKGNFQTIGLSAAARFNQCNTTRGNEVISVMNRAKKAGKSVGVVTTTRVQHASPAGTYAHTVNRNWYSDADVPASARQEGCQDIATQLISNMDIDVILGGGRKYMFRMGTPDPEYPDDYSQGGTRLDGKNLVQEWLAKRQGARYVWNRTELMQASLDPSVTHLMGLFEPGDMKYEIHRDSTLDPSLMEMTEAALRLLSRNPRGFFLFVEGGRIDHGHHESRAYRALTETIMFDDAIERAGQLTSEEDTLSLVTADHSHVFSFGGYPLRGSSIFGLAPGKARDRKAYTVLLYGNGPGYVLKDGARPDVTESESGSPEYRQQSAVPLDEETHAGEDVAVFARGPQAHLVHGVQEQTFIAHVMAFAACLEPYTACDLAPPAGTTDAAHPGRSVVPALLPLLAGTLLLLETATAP
Dual specificity protein phosphatase 3, sequence (P51452 whole entry): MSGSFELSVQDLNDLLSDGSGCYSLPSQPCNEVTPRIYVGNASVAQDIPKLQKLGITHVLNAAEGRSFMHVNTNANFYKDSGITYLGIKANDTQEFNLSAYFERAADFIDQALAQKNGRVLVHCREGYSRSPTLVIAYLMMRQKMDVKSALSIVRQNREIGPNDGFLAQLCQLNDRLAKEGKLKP
Neurotensin receptor type 1, sequence (P30989 whole entry): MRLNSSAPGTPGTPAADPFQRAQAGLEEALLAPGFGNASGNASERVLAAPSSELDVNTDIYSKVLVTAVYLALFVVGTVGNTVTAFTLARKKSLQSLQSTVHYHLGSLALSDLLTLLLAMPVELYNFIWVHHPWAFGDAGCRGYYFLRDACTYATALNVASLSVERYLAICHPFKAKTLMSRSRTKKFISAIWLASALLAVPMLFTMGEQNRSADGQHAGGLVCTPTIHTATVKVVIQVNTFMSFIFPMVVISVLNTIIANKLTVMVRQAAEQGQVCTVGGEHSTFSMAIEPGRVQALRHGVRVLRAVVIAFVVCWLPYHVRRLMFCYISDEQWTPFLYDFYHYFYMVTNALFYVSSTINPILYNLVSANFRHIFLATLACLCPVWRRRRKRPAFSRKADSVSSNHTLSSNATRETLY
Nucleotide-binding oligomerization domain-containing protein 2, sequence (Q9HC29 whole entry, the tested form may be a part): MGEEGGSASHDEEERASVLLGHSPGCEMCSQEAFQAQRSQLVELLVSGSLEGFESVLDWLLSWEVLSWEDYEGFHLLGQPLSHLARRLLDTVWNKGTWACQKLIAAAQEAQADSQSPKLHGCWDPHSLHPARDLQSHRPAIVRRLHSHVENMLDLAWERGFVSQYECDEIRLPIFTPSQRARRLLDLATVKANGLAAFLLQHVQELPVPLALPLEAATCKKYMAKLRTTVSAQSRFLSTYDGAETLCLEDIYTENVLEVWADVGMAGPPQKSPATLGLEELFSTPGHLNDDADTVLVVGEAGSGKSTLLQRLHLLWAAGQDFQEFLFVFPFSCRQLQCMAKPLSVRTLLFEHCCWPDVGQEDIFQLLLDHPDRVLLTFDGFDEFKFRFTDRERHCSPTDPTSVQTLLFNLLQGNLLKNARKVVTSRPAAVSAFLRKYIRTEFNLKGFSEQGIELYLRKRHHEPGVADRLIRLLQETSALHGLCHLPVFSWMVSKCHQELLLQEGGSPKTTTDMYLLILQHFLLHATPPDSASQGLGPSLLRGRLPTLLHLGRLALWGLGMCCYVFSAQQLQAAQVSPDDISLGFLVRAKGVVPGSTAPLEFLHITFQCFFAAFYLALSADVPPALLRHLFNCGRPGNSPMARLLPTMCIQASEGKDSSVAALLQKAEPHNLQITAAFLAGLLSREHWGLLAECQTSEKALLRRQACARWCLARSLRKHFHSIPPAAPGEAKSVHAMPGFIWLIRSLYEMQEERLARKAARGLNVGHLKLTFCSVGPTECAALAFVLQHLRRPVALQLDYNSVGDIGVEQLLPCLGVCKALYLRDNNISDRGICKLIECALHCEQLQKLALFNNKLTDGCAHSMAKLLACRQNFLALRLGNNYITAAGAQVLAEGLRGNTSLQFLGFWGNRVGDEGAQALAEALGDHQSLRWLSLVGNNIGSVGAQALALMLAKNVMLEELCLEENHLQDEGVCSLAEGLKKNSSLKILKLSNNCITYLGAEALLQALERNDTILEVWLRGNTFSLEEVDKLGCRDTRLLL
Cytochrome P450 3A4, sequence (P08684 whole entry): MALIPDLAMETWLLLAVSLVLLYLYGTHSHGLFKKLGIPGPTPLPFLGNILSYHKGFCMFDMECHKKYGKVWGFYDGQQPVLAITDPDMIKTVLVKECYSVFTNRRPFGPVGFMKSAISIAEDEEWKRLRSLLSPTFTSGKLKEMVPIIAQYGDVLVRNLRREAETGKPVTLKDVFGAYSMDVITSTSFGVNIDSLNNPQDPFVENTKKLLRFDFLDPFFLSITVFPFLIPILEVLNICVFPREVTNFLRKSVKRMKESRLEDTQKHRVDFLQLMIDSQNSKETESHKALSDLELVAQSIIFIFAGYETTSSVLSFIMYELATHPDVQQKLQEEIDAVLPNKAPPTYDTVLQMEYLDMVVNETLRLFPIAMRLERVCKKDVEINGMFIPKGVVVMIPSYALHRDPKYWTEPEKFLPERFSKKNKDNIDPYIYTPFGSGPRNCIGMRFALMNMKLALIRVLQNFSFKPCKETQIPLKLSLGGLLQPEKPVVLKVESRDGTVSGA
Estrogen receptor beta, sequence (Q92731 whole entry): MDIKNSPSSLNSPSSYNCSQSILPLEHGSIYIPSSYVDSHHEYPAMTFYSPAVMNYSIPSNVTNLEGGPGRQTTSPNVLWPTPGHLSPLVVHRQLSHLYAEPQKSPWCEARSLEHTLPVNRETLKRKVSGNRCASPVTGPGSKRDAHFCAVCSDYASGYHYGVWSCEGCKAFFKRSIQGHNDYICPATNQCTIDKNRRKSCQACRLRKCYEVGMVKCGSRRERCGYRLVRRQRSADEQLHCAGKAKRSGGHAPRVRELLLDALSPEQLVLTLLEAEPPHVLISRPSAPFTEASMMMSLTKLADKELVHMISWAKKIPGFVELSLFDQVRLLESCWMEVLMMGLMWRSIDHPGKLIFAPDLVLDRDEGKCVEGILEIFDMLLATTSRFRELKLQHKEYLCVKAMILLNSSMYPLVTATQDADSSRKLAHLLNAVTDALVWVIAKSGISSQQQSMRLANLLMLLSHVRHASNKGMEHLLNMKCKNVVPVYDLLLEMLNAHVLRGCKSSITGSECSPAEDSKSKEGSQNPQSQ
Ephrin type-A receptor 4, sequence (Q03137 whole entry): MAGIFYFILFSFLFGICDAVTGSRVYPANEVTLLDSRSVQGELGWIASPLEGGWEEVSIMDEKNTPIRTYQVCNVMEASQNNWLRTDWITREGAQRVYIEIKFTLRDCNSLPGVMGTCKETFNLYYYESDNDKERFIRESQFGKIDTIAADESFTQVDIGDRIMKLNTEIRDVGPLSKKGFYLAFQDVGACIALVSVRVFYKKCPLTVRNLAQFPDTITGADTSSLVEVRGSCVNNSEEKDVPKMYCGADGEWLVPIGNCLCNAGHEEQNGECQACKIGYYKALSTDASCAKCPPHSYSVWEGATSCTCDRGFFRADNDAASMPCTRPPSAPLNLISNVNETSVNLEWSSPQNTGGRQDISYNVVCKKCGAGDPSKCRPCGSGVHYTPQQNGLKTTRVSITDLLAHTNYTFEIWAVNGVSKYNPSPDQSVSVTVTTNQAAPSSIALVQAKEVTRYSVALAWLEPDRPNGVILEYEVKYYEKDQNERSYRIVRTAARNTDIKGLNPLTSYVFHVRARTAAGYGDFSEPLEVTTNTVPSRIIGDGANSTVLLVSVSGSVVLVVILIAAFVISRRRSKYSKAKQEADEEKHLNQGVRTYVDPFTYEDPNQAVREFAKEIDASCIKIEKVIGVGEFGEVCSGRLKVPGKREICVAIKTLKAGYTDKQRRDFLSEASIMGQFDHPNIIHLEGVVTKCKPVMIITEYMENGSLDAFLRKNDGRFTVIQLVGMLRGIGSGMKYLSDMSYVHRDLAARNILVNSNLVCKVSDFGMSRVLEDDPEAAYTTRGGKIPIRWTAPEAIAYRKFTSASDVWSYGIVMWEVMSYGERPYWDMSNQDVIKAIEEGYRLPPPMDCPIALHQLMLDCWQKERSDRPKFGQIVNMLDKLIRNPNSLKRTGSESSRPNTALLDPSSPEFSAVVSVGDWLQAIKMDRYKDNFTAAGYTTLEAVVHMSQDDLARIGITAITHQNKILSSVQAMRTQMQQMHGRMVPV
Induced myeloid leukemia cell differentiation protein Mcl-1, sequence (Q07820 whole entry): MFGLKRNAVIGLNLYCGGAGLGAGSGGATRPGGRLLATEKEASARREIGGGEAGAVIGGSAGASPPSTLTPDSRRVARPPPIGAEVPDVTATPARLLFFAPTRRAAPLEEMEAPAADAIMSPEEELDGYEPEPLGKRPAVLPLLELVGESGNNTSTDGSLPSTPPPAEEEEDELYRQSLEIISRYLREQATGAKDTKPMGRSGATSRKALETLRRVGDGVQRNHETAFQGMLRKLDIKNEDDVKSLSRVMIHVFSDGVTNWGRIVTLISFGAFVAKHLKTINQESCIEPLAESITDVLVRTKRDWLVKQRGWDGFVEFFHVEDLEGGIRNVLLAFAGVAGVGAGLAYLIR

O=C1C=CC(=O)N1Nc1c(Cl)cc(Cl)cc1Cl
Ki [1]: 33.7 µM (inactive)

Cc1[nH]n(-c2ccccc2)c(=O)c1/C=N/NC(=O)c1cccc(F)c1
EC50 (HEK293 [2]): 8.44 µM (active) | EC50 [3]: > 20 µM (inactive) | AC50 (INS1): 2.03 µM (active) | IC50 (HEK293 [4]): > 20 µM (inactive) | IC50 (HEK293 [5]): > 20 µM (inactive) | IC50 (HEK293 [6]): > 20 µM (inactive) | EC50 (Streptococcus): 7.25 µM (active) | EC50 [7]: 4.31 µM (active) | IC50 (HEK293 [8]): > 20 µM (inactive) | IC50 [9]: 7.78 µM (active)

COc1ccccc1N1C(=O)C2CCC(c3ccccc3)CC2C1=O (centres undefined)
IC50 [10]: > 100 µM (inactive) | IC50 (Saccharomyces cerevisiae): > 100 µM (inactive)

CCOC(=O)COc1ccc(/C=C/[N+](=O)[O-])c(OCC(=O)OCC)c1
EC50 [11]: 3.89 µM (active) | EC50 [12]: 6.52 µM (inconclusive) | AC50 (Cytochrome P450 3A4): 11.2 µM (inconclusive)

COC(=O)C(=Cc1ccc(OCc2ccc([N+](=O)[O-])cc2)c(OC)c1)C(=O)OC
EC50 (HEK293 [2]): > 20 µM (inactive) | EC50 [11]: 5.98 µM (active) | CC50 [13]: 6.91 µM (active) | IC50 (HEK293 [4]): > 20 µM (inactive) | IC50 (HEK293 [5]): 4.31 µM (active) | IC50 (HEK293 [8]): 8.46 µM (active)

O=C(NCCc1ccccc1)c1ccc2nc(-c3ccco3)c(-c3ccco3)nc2c1
IC50 [14]: 1.05 µM (active) | IC50 (Estrogen receptor beta): 2.59 µM (not active) | IC50 (Ephrin type-A receptor 4): 21.3 µM (active) | IC50 [15]: 3.16 µM (active) | IC50 (Genome polyprotein): 59.1 µM (active)

COc1ccccc1-c1nc(SCc2cccc(Br)c2)n[nH]1
IC50 [16]: > 100 µM (inactive) | IC50 [17]: > 100 µM (not active) | IC50 [18]: > 100 µM (inactive)

c1ccc2c(CNC34CC5CC(CC(C5)C3)C4)c[nH]c2c1
Ki [1]: 32.9 µM (inactive)

Nc1ncnc(Nc2ccccn2)c1[N+](=O)[O-]
EC50 (HEK293 [2]): 17.8 µM (active) | EC50 [3]: 18.8 µM (active) | IC50 (HEK293 [4]): > 20 µM (inactive) | IC50 (HEK293 [5]): 7.86 µM (active) | IC50 (HEK293 [6]): > 20 µM (inactive) | IC50 (HEK293 [8]): 17.6 µM (inactive)

O=C1C2CC=CCC2C(=O)N1c1n[nH]c(-c2ccccc2)n1 (centres undefined)
IC50 [16]: 4 µM (active) | IC50 [17]: > 100 µM (not active) | IC50 [18]: 0.308 µM (active)

NC(=O)[C@H](Cc1ccccc1)n1c(=O)[nH]c(=O)n(-c2ccc(Cl)cc2)c1=O
IC50 [17]: > 100 µM (not active) | IC50 [19]: > 100 µM (inactive) | IC50 [20]: > 100 µM (not active) | IC50 [21]: > 100 µM (inactive)
